Experiments:
[1] = In vitro 2-methyl-6-solanylplastoquinol methyltransferase assay of E. coli expressed SLL0418; assay type: biochemical, Synechocystis; details: E. coli extract
Excerpt: (§1) A second approach to characterizing the Synechocystis genes and proteins involved in tocopherol biosynthesis involved the expression and biochemical analysis of these genes in E. coli. The Synechocystis SLL0418 gene sequence was subcloned from pSLL0418-1 as a Nde1/Hind3 fragment into the Nde1 and Hind3 sites of the E. coli expression vector, pET30B. The resulting plasmid construct was designated p041798 and was transformed into the E. coli strain BL21(DE3)pLysS. Protein expression was induced with 1 mM isopropylthio-b-galactoside (IPTG) in the cells transformed with p041798 and cells transformed with the empty pET30B vector. Induced cultures were grown for 3 hours at 28° C. in a shaking incubator after which the cells were harvested by centrifugation at 8,000 g for 10 minutes at 4° C. and stored at […] The cell pellets were resuspended in 50 mM Tris-HCl pH 8.0, 5 mM DTT, 1 mM PMSF and homogenized with four 10 second burst with a sonicator. Triton X 100 was then added to a final concentration of 1% and the mixture was incubated on ice for 30 minutes. The insoluble material was then removed by centrifugation at 40,000 g for 30 minutes and the supernatant was saved for methyltransferase assays.
The 2-methyl-6-solanylplastoquinol substrate was purified from Iris bulbs. One hundred gm of iris bulbs were homogenized in 500 mL acetone. […]

[2] = In vitro 2-methyl-6-phytylplastoquinol methyltransferase assay of E. coli expressed SLL0418; assay type: biochemical, Synechocystis; details: E. coli extract
Excerpt: as §1
A mixture of 6 different isomers of methylphytylplastoquinone was synthesized as described by Henry et al. (1987) Biochem J 242: 367-373. […]

Substance: 2-methyl-6-phytylplastoquinol/2-methyl-6-solanylplastoquinol-9 methyltransferase [SLL0418]
- methylation of 2-methyl-6-solanylplastoquinol to form 2,3-dimethylsolanylplastoquinol ([1]; result in words): able to methylate
- amount of 14C labeled 2,3-dimethylsolanylplastoquinol product produced ([1]; substrate 2-methyl-6-solanylplastoquinol, [14C-methyl]-S-adenosylmethionine, 30 minutes, room temperature): 174 CPM
- methylation of 2-methyl-6-phytylplastoquinol to form 2,3-dimethylphytlyplastoquinol ([2]; result in words): able to methylate
- amount of 14C labeled 2,3-dimethyl-6-phytylplastoquinol product produced ([2]; substrate 2-methyl-6-phytylplastoquinol, [14C-methyl]-S-adenosylmethionine, 30 minutes, room temperature): 484 CPM

From patent publication US6448475B1, “Manipulation of tocopherol levels in transgenic plants by transformation with a synechocystis 2-methyl-6-phytylplastoquinol/2-methyl-6-solanylplastoquinol-9 methyltransferase” (The University and Community College System of Nevada, priority 1998, dated 2002)
